Assay results: US20060013852A1, “Use of organic compounds” (priority 2002, published 2006)

What was measured:
[1] = system: neointimal lesion formation; assay: rat carotid artery balloon injury model; assay type: in vivo; conditions: local delivery to adventitia via Alzet minipump; early (9 days) and late (21-28 days) post-ballooning
Source text: Rat carotid arteries are balloon injured using a method described by Clowes et al. Lab. Invest. 1983; 49; 208-215. […] A P<0.05 is considered statistically significant.

[2] = clinical study of aliskiren in dialysis patients after catheter insertion; assay type: in vivo, human; conditions: aliskiren 100 mg daily for 3 months; observation 6 months
Description: One hundred fifty prospective dialysis patients, who undergo successful insertion of an indwelling, large bore catheter, into a vein are selected for study. […] These drugs are administered for 3 consecutive months following catheter insertion.

[3] = system: restenotic lesion formation; assay: rabbit iliac stent model; assay type: in vivo, New Zealand White rabbit; conditions: for angiogenic response post-stenting: orally and locally via coated stent, 7 and 28 days post-stenting, vs placebo
Description: A combined angioplasty and stenting procedure is performed in New Zealand White rabbit iliac arteries. Iliac artery balloon injury is performed by inflating a 3.0×9.0 mm angioplasty balloon in the mid-portion of the artery followed by “pull-back” of the catheter for 1 balloon length. Balloon injury is repeated 2 times, and a 3.0×12 mm stent is deployed at 6 atm for 30 seconds in the iliac artery. Balloon injury and stent placement is then performed on the contralateral iliac artery in the same manner. A post-stent deployment angiogram is performed. […] The vascular section between the distal aorta and the proximal femoral arteries is excised and cleaned of periadventitial tissue. The stented section of artery is embedded in plastic and sections are taken from the proximal, middle, and distal portions of each stent. […] The vessel area is measured as the area within the EEL. Data are expressed as mean±SEM. […] A P<0.05 is considered statistically significant.
(§1) 4. […] CYR61, an angiogenic factor, is induced by Angiotensin II (Ang II) in vascular cells and tissue. Likewise, Ang II induces an angiogenic reponse when Angil is delivered locally in mice or rats.

[4] = system: Ang II induced angiogenic response; assay: angiogenic response to locally delivered Ang II; assay type: in vivo; conditions: Ang II delivered locally in mice or rats
Source text: as §1

SMILES | inhibition of neointimal lesions [1] | prevention or reduction of vascular access dysfunction [2] | angiogenic response post-stenting [3] | inhibition of Ang II induced angiogenic response in vivo [4] | mean neointimal thickness ([3]; vs placebo-treated animals) | percent stent stenosis ([3]; vs placebo-treated animals)
COCCCOc1cc(C[C@@H](C[C@H](N)[C@@H](O)C[C@H](C(=O)NCC(C)(C)C(N)=O)C(C)C)C(C)C)ccc1OC [aliskiren, 2(S),4(S),5(S),7(S)-N-(3-amino-2,2-dimethyl-3-oxopropyl)-2,7-di(1-methylethyl)-4-hydroxy-5-amino-8-[4-methoxy-3-(3-methoxy-propoxy)phenyl]-octanamide] | potent inhibition | efficacy | markedly inhibits | potent inhibition | – | –
CCCCC(=O)N(Cc1ccc(-c2ccccc2-c2nnn[nH]2)cc1)[C@H](C(=O)O)C(C)C [valsartan] | potent inhibition | – | markedly inhibits | potent inhibition | reduced | reduced
